Test results: paper PMC2931804 (Clinical cancer research : an official journal of the …, 2010)
Where two headings read alike, the source gives them in different places.

[1] = DL1 500 mg twice daily × 3 + sLV5FU2, 1st cycle, n = 3
[2] = DL1 500 mg twice daily × 3 + sLV5FU2, Any cycle, n = 3
[3] = DL1 600 mg once daily × 3 + sLV5FU2, 1st cycle, n = 3
[4] = DL1 600 mg once daily × 3 + sLV5FU2, Any cycle, n = 3
[5] = DL2 600 mg twice daily × 3 + sLV5FU2, 1st cycle, n = 6
[6] = DL2 600 mg twice daily × 3 + sLV5FU2, Any cycle, n = 6
[7] = DL2 800 mg once daily × 3 + sLV5FU2, 1st cycle, n = 3
[8] = DL2 800 mg once daily × 3 + sLV5FU2, Any cycle, n = 3
[9] = DL3 800 mg twice daily × 3 + sLV5FU2, 1st cycle, n = 3
[10] = DL3 800 mg twice daily × 3 + sLV5FU2, Any cycle, n = 3

O=C(CCCCCCC(=O)Nc1ccccc1)NO [vorinostat, suberoylanilide hydroxamic acid]
Dose-limiting toxicities (800 mg vorinostat twice-daily dose level + sLV5FU2): Grade 3 fatigue and mucositis
Dose-limiting toxicities (2,000 mg vorinostat once-daily dose level + sLV5FU2): Grade 3 fatigue, and hand and foot syndrome
ATE, treatment-related, patients (G2/G3/G4) [1]: 0/0/0
Anemia, treatment-related, patients (G2/G3/G4) [1]: 0/0/0
Anorexia, treatment-related, patients (G2/G3/G4) [1]: 0/0/0
Chelitis, treatment-related, patients (G2/G3/G4) [1]: 0/0/0
Dehydration, treatment-related, patients (G2/G3/G4) [1]: 0/0/0
Diarrhea, treatment-related, patients (G2/G3/G4) [1]: 1/0/0
Esophagitis, treatment-related, patients (G2/G3/G4) [1]: 0/0/0
Fatigue, treatment-related, patients (G2/G3/G4) [1]: 2/0/0
Fever, treatment-related, patients (G2/G3/G4) [1]: 0/0/0
Headache, treatment-related, patients (G2/G3/G4) [1]: 0/0/0
Mucositis, treatment-related, patients (G2/G3/G4) [1]: 0/0/0
Nausea, treatment-related, patients (G2/G3/G4) [1]: 1/0/0
Neutropenia, treatment-related, patients (G2/G3/G4) [1]: 0/0/0
Thrombocytopenia, treatment-related, patients (G2/G3/G4) [1]: 0/0/0
VTE, treatment-related, patients (G2/G3/G4) [1]: 0/0/0
Vomiting, treatment-related, patients (G2/G3/G4) [1]: 1/0/0
ATE, treatment-related, patients (G2/G3/G4) [2]: 0/0/0
Anemia, treatment-related, patients (G2/G3/G4) [2]: 0/0/0
Anorexia, treatment-related, patients (G2/G3/G4) [2]: 2/0/0
Chelitis, treatment-related, patients (G2/G3/G4) [2]: 0/0/0
Dehydration, treatment-related, patients (G2/G3/G4) [2]: 0/0/0
Diarrhea, treatment-related, patients (G2/G3/G4) [2]: 1/0/0
Esophagitis, treatment-related, patients (G2/G3/G4) [2]: 1/0/0
Fatigue, treatment-related, patients (G2/G3/G4) [2]: 3/0/0
Fever, treatment-related, patients (G2/G3/G4) [2]: 1/0/0
Headache, treatment-related, patients (G2/G3/G4) [2]: 0/0/0
Mucositis, treatment-related, patients (G2/G3/G4) [2]: 1/0/0
Nausea, treatment-related, patients (G2/G3/G4) [2]: 2/0/0
Neutropenia, treatment-related, patients (G2/G3/G4) [2]: 0/0/0
Thrombocytopenia, treatment-related, patients (G2/G3/G4) [2]: 0/0/0
VTE, treatment-related, patients (G2/G3/G4) [2]: 0/0/0
Vomiting, treatment-related, patients (G2/G3/G4) [2]: 1/0/0
Anemia, treatment-related, patients (G2/G3/G4) [3]: 1/0/0
Anorexia, treatment-related, patients (G2/G3/G4) [3]: 1/0/0
DVT/PE, treatment-related, patients (G2/G3/G4) [3]: 0/0/0
Dehydration, treatment-related, patients (G2/G3/G4) [3]: 0/0/0
Diarrhea, treatment-related, patients (G2/G3/G4) [3]: 0/0/0
Fatigue, treatment-related, patients (G2/G3/G4) [3]: 1/0/0
GI bleed, treatment-related, patients (G2/G3/G4) [3]: 0/0/0
Hand and Foot, treatment-related, patients (G2/G3/G4) [3]: 0/0/0
Infection, treatment-related, patients (G2/G3/G4) [3]: 0/0/0
Mucositis, treatment-related, patients (G2/G3/G4) [3]: 0/0/0
Nausea, treatment-related, patients (G2/G3/G4) [3]: 1/0/0
Neutropenia, treatment-related, patients (G2/G3/G4) [3]: 0/0/0
Thrombocytopenia, treatment-related, patients (G2/G3/G4) [3]: 1/0/0
Vomiting, treatment-related, patients (G2/G3/G4) [3]: 0/0/0
Weight Loss, treatment-related, patients (G2/G3/G4) [3]: 0/0/0
Anemia, treatment-related, patients (G2/G3/G4) [4]: 1/0/0
Anorexia, treatment-related, patients (G2/G3/G4) [4]: 1/0/0
Creatinine, treatment-related, patients (G2/G3/G4) [4]: 1/0/0
DVT/PE, treatment-related, patients (G2/G3/G4) [4]: 0/0/0
Dehydration, treatment-related, patients (G2/G3/G4) [4]: 1/0/0
Diarrhea, treatment-related, patients (G2/G3/G4) [4]: 0/1/0
Fatigue, treatment-related, patients (G2/G3/G4) [4]: 2/0/0
GI bleed, treatment-related, patients (G2/G3/G4) [4]: 0/0/0
Hand and Foot, treatment-related, patients (G2/G3/G4) [4]: 0/0/0
Infection, treatment-related, patients (G2/G3/G4) [4]: 0/0/0
Mucositis, treatment-related, patients (G2/G3/G4) [4]: 2/0/0
Nausea, treatment-related, patients (G2/G3/G4) [4]: 1/0/0
Neutropenia, treatment-related, patients (G2/G3/G4) [4]: 0/0/0
Thrombocytopenia, treatment-related, patients (G2/G3/G4) [4]: 1/0/0
Vomiting, treatment-related, patients (G2/G3/G4) [4]: 1/0/0
Weight Loss, treatment-related, patients (G2/G3/G4) [4]: 0/0/0
DLT (DL1 (500 mg twice daily × 3) and DL2 (600 mg twice daily), three patients each): without any DLT
ATE, treatment-related, patients (G2/G3/G4) [5]: 0/0/0
Anemia, treatment-related, patients (G2/G3/G4) [5]: 1/0/0
Anorexia, treatment-related, patients (G2/G3/G4) [5]: 2/0/0
Chelitis, treatment-related, patients (G2/G3/G4) [5]: 0/0/0
Dehydration, treatment-related, patients (G2/G3/G4) [5]: 0/0/0
Diarrhea, treatment-related, patients (G2/G3/G4) [5]: 1/0/0
Esophagitis, treatment-related, patients (G2/G3/G4) [5]: 0/0/0
Fatigue, treatment-related, patients (G2/G3/G4) [5]: 3/0/0
Fever, treatment-related, patients (G2/G3/G4) [5]: 0/0/0
Headache, treatment-related, patients (G2/G3/G4) [5]: 0/0/0
Mucositis, treatment-related, patients (G2/G3/G4) [5]: 0/0/0
Nausea, treatment-related, patients (G2/G3/G4) [5]: 3/0/0
Neutropenia, treatment-related, patients (G2/G3/G4) [5]: 0/0/0
Thrombocytopenia, treatment-related, patients (G2/G3/G4) [5]: 0/1/0
VTE, treatment-related, patients (G2/G3/G4) [5]: 0/0/0
Vomiting, treatment-related, patients (G2/G3/G4) [5]: 1/0/0
ATE, treatment-related, patients (G2/G3/G4) [6]: 0/0/0
Anemia, treatment-related, patients (G2/G3/G4) [6]: 1/1/0
Anorexia, treatment-related, patients (G2/G3/G4) [6]: 2/0/0
Chelitis, treatment-related, patients (G2/G3/G4) [6]: 0/0/0
Dehydration, treatment-related, patients (G2/G3/G4) [6]: 2/0/0
Diarrhea, treatment-related, patients (G2/G3/G4) [6]: 1/0/0
Esophagitis, treatment-related, patients (G2/G3/G4) [6]: 0/0/0
Fatigue, treatment-related, patients (G2/G3/G4) [6]: 3/1/0
Fever, treatment-related, patients (G2/G3/G4) [6]: 0/0/1
Headache, treatment-related, patients (G2/G3/G4) [6]: 0/1/0
Mucositis, treatment-related, patients (G2/G3/G4) [6]: 0/0/0
Nausea, treatment-related, patients (G2/G3/G4) [6]: 3/0/0
Neutropenia, treatment-related, patients (G2/G3/G4) [6]: 0/0/0
Thrombocytopenia, treatment-related, patients (G2/G3/G4) [6]: 0/0/1
VTE, treatment-related, patients (G2/G3/G4) [6]: 0/0/0
Vomiting, treatment-related, patients (G2/G3/G4) [6]: 1/0/0
Patients with DLT (DL2 600 mg twice daily × 3 + sLV5FU2, six patients): None and without any DLT
Anemia, treatment-related, patients (G2/G3/G4) [7]: 1/0/0
Anorexia, treatment-related, patients (G2/G3/G4) [7]: 1/0/0
Creatinine, treatment-related, patients (G2/G3/G4) [7]: 1/0/0
DVT/PE, treatment-related, patients (G2/G3/G4) [7]: 0/0/0
Dehydration, treatment-related, patients (G2/G3/G4) [7]: 0/0/0
Diarrhea, treatment-related, patients (G2/G3/G4) [7]: 0/0/0
Fatigue, treatment-related, patients (G2/G3/G4) [7]: 1/0/0
GI bleed, treatment-related, patients (G2/G3/G4) [7]: 0/0/0
Hand and Foot, treatment-related, patients (G2/G3/G4) [7]: 0/0/0
Infection, treatment-related, patients (G2/G3/G4) [7]: 0/0/0
Mucositis, treatment-related, patients (G2/G3/G4) [7]: 0/0/0
Nausea, treatment-related, patients (G2/G3/G4) [7]: 1/0/0
Neutropenia, treatment-related, patients (G2/G3/G4) [7]: 0/0/0
Thrombocytopenia, treatment-related, patients (G2/G3/G4) [7]: 1/0/0
Vomiting, treatment-related, patients (G2/G3/G4) [7]: 0/0/0
Weight Loss, treatment-related, patients (G2/G3/G4) [7]: 0/0/0
Anemia, treatment-related, patients (G2/G3/G4) [8]: 1/0/0
Anorexia, treatment-related, patients (G2/G3/G4) [8]: 2/0/0
DVT/PE, treatment-related, patients (G2/G3/G4) [8]: 0/0/0
Dehydration, treatment-related, patients (G2/G3/G4) [8]: 0/0/0
Diarrhea, treatment-related, patients (G2/G3/G4) [8]: 1/0/0
Fatigue, treatment-related, patients (G2/G3/G4) [8]: 2/0/0
GI bleed, treatment-related, patients (G2/G3/G4) [8]: 0/0/0
Hand and Foot, treatment-related, patients (G2/G3/G4) [8]: 0/0/0
Infection, treatment-related, patients (G2/G3/G4) [8]: 0/0/0
Mucositis, treatment-related, patients (G2/G3/G4) [8]: 0/0/0
Nausea, treatment-related, patients (G2/G3/G4) [8]: 2/0/0
Neutropenia, treatment-related, patients (G2/G3/G4) [8]: 0/0/0
Thrombocytopenia, treatment-related, patients (G2/G3/G4) [8]: 1/0/0
Vomiting, treatment-related, patients (G2/G3/G4) [8]: 0/0/0
Weight Loss, treatment-related, patients (G2/G3/G4) [8]: 0/0/0
ATE, treatment-related, patients (G2/G3/G4) [9]: 0/0/0
Anemia, treatment-related, patients (G2/G3/G4) [9]: 0/0/0
Anorexia, treatment-related, patients (G2/G3/G4) [9]: 1/0/0
Chelitis, treatment-related, patients (G2/G3/G4) [9]: 1/0/0
Dehydration, treatment-related, patients (G2/G3/G4) [9]: 2/0/0
Diarrhea, treatment-related, patients (G2/G3/G4) [9]: 1/0/0
Esophagitis, treatment-related, patients (G2/G3/G4) [9]: 1/0/0
Fever, treatment-related, patients (G2/G3/G4) [9]: 0/0/0
Headache, treatment-related, patients (G2/G3/G4) [9]: 0/0/0
Nausea, treatment-related, patients (G2/G3/G4) [9]: 0/0/0
Neutropenia, treatment-related, patients (G2/G3/G4) [9]: 0/0/0
Thrombocytopenia, treatment-related, patients (G2/G3/G4) [9]: 3/0/0
VTE, treatment-related, patients (G2/G3/G4) [9]: 0/0/0
Vomiting, treatment-related, patients (G2/G3/G4) [9]: 0/0/0
ATE, treatment-related, patients (G2/G3/G4) [10]: 0/0/1
Anemia, treatment-related, patients (G2/G3/G4) [10]: 0/2/0
Anorexia, treatment-related, patients (G2/G3/G4) [10]: 2/0/0
Chelitis, treatment-related, patients (G2/G3/G4) [10]: 2/0/0
Dehydration, treatment-related, patients (G2/G3/G4) [10]: 2/0/0
Diarrhea, treatment-related, patients (G2/G3/G4) [10]: 0/1/0
Esophagitis, treatment-related, patients (G2/G3/G4) [10]: 1/0/0
Fatigue, treatment-related, patients (G2/G3/G4) [10]: 1/2/0
Fever, treatment-related, patients (G2/G3/G4) [10]: 0/0/0
Headache, treatment-related, patients (G2/G3/G4) [10]: 0/0/0
Mucositis, treatment-related, patients (G2/G3/G4) [10]: 2/1/1
